Data from publication PMC5421785, “Citrullination only infrequently impacts peptide binding to HLA class II MHC” (PLoS ONE, 2017).
Read-outs that look alike come from different tables or passages of the source. Square brackets hold non-standard residues; d marks the D form. Peptide text beside a SMILES is read from it. Cit = NC(=O)NCCC[C@H](N)C(=O)O

Experiments:
[1] = molecular target: T1, HLA-DRB1*01:01 (Homo sapiens, UniProt P01903+P01911, A100R/D57E/F55L/F60I/F76Y/I96L/L162R/M171V/P40L/Q125E/R42F/V115G/Y59C); assay: HLA class II peptide binding, inhibition of radiolabeled peptide binding to purified MHC
T1 construct: EBV transformed homozygous cell lines were used as sources of MHC molecules; endogenous in cells; host or cells: EBV transformed homozygous cell lines

[2] = molecular target: T2, HLA-DRB1*04:01 (Homo sapiens, UniProt P01903+P01911, A100K/A169T/F76Y/I96L/K127E/L162R/M171V/N62H/P40V/Q125Y/R42H/S133A/S149N/S66Y/V115G/V209L/W38E); assay: as above
T2 construct: EBV transformed homozygous cell lines were used as sources of MHC molecules; endogenous in cells; host or cells: EBV transformed homozygous cell lines

[3] = citrullinated 15-mer (X), purified MHC, inhibition of radiolabeled peptide binding, dash = IC50 >40,000 nM, read-out: DRB1*01:01 binding capacity, Cit peptide (IC50 nM)
[4] = citrullinated 15-mer (X), purified MHC, inhibition of radiolabeled peptide binding, dash = IC50 >40,000 nM, read-out: DRB1*04:01 binding capacity, Cit peptide (IC50 nM)
[5] = citrullinated 15-mer peptide (X = citrulline), purified HLA-DRB1*01:01, read-out: DRB1*01:01 binding capacity, Cit peptide (IC50 nM)
[6] = citrullinated 15-mer peptide (X = citrulline), purified HLA-DRB1*04:01, read-out: DRB1*04:01 binding capacity, Cit peptide (IC50 nM)
[7] = citrullinated peptide as listed (X at Cit position), read-out: DRB1*01:01 binding capacity Cit peptide (IC50 nM)
[8] = citrullinated peptide as listed (X at Cit position), read-out: DRB1*04:01 binding capacity Cit peptide (IC50 nM)

IC50 [1, 3] [nM] | IC50 [2, 4] [nM] | IC50 [1, 5] [nM] | IC50 [2, 6] [nM] | SMILES | further results
1490 | 4740 |  |  | CSCC[C@H](NC(=O)[C@H](CCC(=O)O)NC(=O)[C@H](CCC(=O)O)NC(=O)[C@@H](N)CCC(=O)O)C(=O)N[C@@H](CCCNC(=N)N)C(=O)N[C@@H](CCC(=O)O)C(=O)N[C@@H](CC(C)C)C(=O)N[C@@H](CCCNC(N)=O)C(=O)N[C@@H](CCCNC(=N)N)C(=O)N[C@@H](CCC(N)=O)C(=O)N[C@H](C(=O)N[C@@H](CC(=O)O)C(=O)N[C@@H](CCC(N)=O)C(=O)N[C@@H](CC(C)C)C(=O)N[C@H](C(=O)O)[C@@H](C)O)C(C)C [EEEMRELXRQVDQLT] (H-EEEMREL[Cit]RQVDQLT-OH) | 
 |  | 1320 | 1200 | CC[C@H](C)[C@H](NC(=O)[C@H](CCCNC(N)=O)NC(=O)[C@H](CO)NC(=O)[C@H](CCC(=O)O)NC(=O)[C@H](CCC(=O)O)NC(=O)CNC(=O)[C@H](CCC(=O)O)NC(=O)[C@H](CC(C)C)NC(=O)[C@H](CC(C)C)NC(=O)[C@H](CCCCN)NC(=O)[C@@H](N)CCCNC(=N)N)C(=O)N[C@@H](CO)C(=O)N[C@@H](CC(C)C)C(=O)N1CCC[C@H]1C(=O)N[C@@H](CC(C)C)C(=O)O [RKLLEGEESXISLPL] | 
102 | 1210 |  |  | CC[C@H](C)[C@H](NC(=O)[C@H](CCCCN)NC(=O)[C@H](CC(N)=O)NC(=O)[C@H](CCC(N)=O)NC(=O)[C@H](CCC(N)=O)NC(=O)[C@H](CCC(=O)O)NC(=O)[C@H](CC(C)C)NC(=O)[C@H](Cc1ccccc1)NC(=O)[C@H](CCCNC(N)=O)NC(=O)[C@@H](NC(=O)[C@H](CCCCN)NC(=O)[C@H](CC(=O)O)NC(=O)[C@@H](NC(=O)[C@H](Cc1ccc(O)cc1)NC(=O)[C@@H](N)CC(N)=O)[C@@H](C)CC)C(C)C)C(=O)O [NYIDKVXFLEQQNKI] (H-NYIDKV[Cit]FLEQQNKI-OH) | 
 |  |  |  | CC[C@H](C)[C@H](N)C(=O)N[C@@H](CCCNC(N)=O)C(=O)N[C@@H](C)C(=O)N[C@@H](CCC(=O)O)C(=O)NCC(=O)N[C@@H](CC(N)=O)C(=O)N[C@@H](CO)C(=O)N[C@@H](CCCNC(=N)N)C(=O)N[C@@H](Cc1ccccc1)C(=O)N[C@H](C(=O)N[C@@H](Cc1ccc(O)cc1)C(=O)N[C@H](C(=O)N[C@@H](C)C(=O)N[C@@H](CC(C)C)C(=O)N[C@@H](CCCCN)C(=O)O)[C@@H](C)O)[C@@H](C)O [IXAEGNSRFTYTALK] (H-I[Cit]AEGNSRFTYTALK-OH) | IC50 [1, 7]: 0.62 nM; IC50 ([1]; value of the wild-type (non-citrullinated) counterpart of the listed peptide, read-out: DRB1*01:01 binding capacity WT peptide (IC50 nM)): 1.3 nM; IC50 [2, 8]: 2310 nM; IC50 ([2]; value of the wild-type (non-citrullinated) counterpart of the listed peptide, read-out: DRB1*04:01 binding capacity WT peptide (IC50 nM)): 794 nM
 |  |  |  | C[C@H](NC(=O)CNC(=O)[C@H](CCC(N)=O)NC(=O)[C@@H]1CCCN1C(=O)CNC(=O)[C@@H]1CCCN1C(=O)[C@@H]1CCCN1C(=O)CNC(=O)[C@H](CCCNC(N)=O)NC(=O)[C@@H]1CCCN1C(=O)CNC(=O)[C@@H]1CCCN1C(=O)[C@H](Cc1ccccc1)NC(=O)CNC(=O)[C@@H]1CCCN1)C(=O)O [PGFPGPXGPPGPQGA] (H-PGFPGP[Cit]GPPGPQGA-OH) | IC50 ([1]; citrullinated 15-mer peptide (X = citrulline), […], read-out: DRB1*01:01 binding capacity, Cit peptide (IC50 nM)): > 40000 nM; IC50 ([2]; citrullinated 15-mer peptide (X = citrulline), […], read-out: DRB1*04:01 binding capacity, Cit peptide (IC50 nM)): 37800 nM
 |  | 13 | 10500 | CC[C@H](C)[C@H](NC(=O)CNC(=O)[C@H](CCCNC(N)=O)NC(=O)[C@H](CCC(N)=O)NC(=O)CNC(=O)[C@H](C)NC(=O)[C@@H](N)CC(C)C)C(=O)N[C@H](C(=O)NCC(=O)N[C@@H](CC(C)C)C(=O)N1CCC[C@H]1C(=O)NCC(=O)N[C@@H](CCC(N)=O)C(=O)N[C@@H](CCCNC(=N)N)C(=O)NCC(=O)O)C(C)C [LAGQXGIVGLPGQRG] (H-LAGQ[Cit]GIVGLPGQRG-OH) | 
 |  | 5190 | > 40000 | CSCC[C@H](NC(=O)[C@H](CCC(=O)O)NC(=O)[C@H](CCC(=O)O)NC(=O)[C@H](CCCCN)NC(=O)[C@H](CCSC)NC(=O)[C@@H](N)CC(N)=O)C(=O)N[C@@H](C)C(=O)N[C@@H](CCCNC(N)=O)C(=O)N[C@@H](Cc1c[nH]cn1)C(=O)N[C@@H](CC(C)C)C(=O)N[C@@H](CCCNC(=N)N)C(=O)N[C@@H](CCC(=O)O)C(=O)N[C@@H](Cc1ccc(O)cc1)C(=O)N[C@@H](CCC(N)=O)C(=O)N[C@@H](CC(=O)O)C(=O)O [NMKEEMAXHLREYQD] | 
 |  |  |  | CC[C@H](C)[C@H](NC(=O)[C@H](CCCNC(=N)N)NC(=O)[C@H](CO)NC(=O)[C@H](CCC(=O)O)NC(=O)[C@H](CCC(=O)O)NC(=O)CNC(=O)[C@H](CCC(=O)O)NC(=O)[C@H](CC(C)C)NC(=O)[C@H](CC(C)C)NC(=O)[C@H](CCCCN)NC(=O)[C@@H](N)CCCNC(=N)N)C(=O)N[C@@H](CO)C(=O)N[C@@H](CC(C)C)C(=O)N1CCC[C@H]1C(=O)N[C@@H](CC(C)C)C(=O)O [Vimentin 401 WT] | IC50 ([1]; wild-type (unmodified Arg) 15-mer peptide, purified HLA-DRB1*01:01, read-out: DRB1*01:01 binding capacity, WT peptide (IC50 nM)): 1920 nM; IC50 ([2]; wild-type (unmodified Arg) 15-mer peptide, purified HLA-DRB1*04:01, read-out: DRB1*04:01 binding capacity, WT peptide (IC50 nM)): 2710 nM
53 | 4770 |  |  | CC(C)C[C@H](NC(=O)[C@H](C)NC(=O)[C@H](CO)NC(=O)CNC(=O)[C@H](CC(C)C)NC(=O)[C@H](CO)NC(=O)[C@H](Cc1ccc(O)cc1)NC(=O)[C@@H](NC(=O)[C@@H](N)CCCNC(N)=O)[C@@H](C)O)C(=O)N[C@@H](CCCNC(=N)N)C(=O)N1CCC[C@H]1C(=O)N[C@@H](CO)C(=O)N[C@H](C(=O)N[C@@H](CO)C(=O)N[C@@H](CCCNC(=N)N)C(=O)O)[C@@H](C)O [XTYSLGSALRPSTSR] (H-[Cit]TYSLGSALRPSTSR-OH) | 
 |  |  |  | CC[C@H](C)[C@H](NC(=O)[C@H](CC(C)C)NC(=O)[C@@H](N)CC(C)C)C(=O)N[C@@H](CCC(N)=O)C(=O)NCC(=O)N[C@@H](CO)C(=O)N[C@@H](CC(N)=O)C(=O)N[C@@H](CC(=O)O)C(=O)N[C@H](C(=O)N[C@@H](CCC(=O)O)C(=O)N[C@H](C(=O)N[C@@H](CCCNC(N)=O)C(=O)N[C@@H](C)C(=O)N[C@@H](CCC(=O)O)C(=O)NCC(=O)O)[C@@H](C)CC)C(C)C [LLIQGSNDVEIXAEG] (H-LLIQGSNDVEI[Cit]AEG-OH) | IC50 [1, 7]: 998 nM; IC50 [2, 8]: 8740 nM
